Data on 20 compounds can be found in patent publication US7057052B2, “Heterocyclic quinones as pharmaceutical agents” (Duke University, priority 2002, dated 2006).

SMILES strings stand for the structures. Read-outs that look alike come from different tables or passages of the source.

Common to all, as to format: biochemical
One test has as its target T1, Cdc25A (Homo sapiens, UniProt P30304).
T1 sequence (P30304 1-524): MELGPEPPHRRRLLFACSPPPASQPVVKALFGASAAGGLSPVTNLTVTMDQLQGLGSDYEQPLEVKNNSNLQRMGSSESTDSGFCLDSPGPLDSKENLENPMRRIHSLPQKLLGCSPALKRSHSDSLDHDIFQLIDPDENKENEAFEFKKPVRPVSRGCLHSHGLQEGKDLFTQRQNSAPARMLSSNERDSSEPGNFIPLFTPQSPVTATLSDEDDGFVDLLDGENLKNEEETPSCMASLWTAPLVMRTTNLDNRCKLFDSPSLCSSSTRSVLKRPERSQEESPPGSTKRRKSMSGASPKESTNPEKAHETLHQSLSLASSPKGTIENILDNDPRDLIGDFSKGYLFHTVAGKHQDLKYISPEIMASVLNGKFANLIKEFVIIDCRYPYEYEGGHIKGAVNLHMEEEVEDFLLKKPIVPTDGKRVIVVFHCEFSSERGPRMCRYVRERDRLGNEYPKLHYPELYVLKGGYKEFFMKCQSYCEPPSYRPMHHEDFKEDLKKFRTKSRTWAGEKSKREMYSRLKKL
As to the kind of experiment: Cdc25A phosphatase inhibition screen at 50 μM. The following applies: for inhibition at 50 µM: read-out: Percent Inhibition at 50 uM compound, Cdc25 A. How it is done: (§1) Using procedures known to those skilled in the art, the compounds listed in Table 3 were screened against Cdc25A, Cdc25B, and Cdc25C at 50 μM. […] To analyze these effects further, the compounds were then screened against Cdc25B in a 3 pt. IC-50, using 1, 7 and 50 μM. Several of the compounds were also screened with an 8 pt. IC-50 process, using 0.1–10 μM, allowing determination of Hill slopes.

The target of a further test is T2, Cdc25C (Homo sapiens, UniProt P30307).
T2 sequence (P30307 1-473): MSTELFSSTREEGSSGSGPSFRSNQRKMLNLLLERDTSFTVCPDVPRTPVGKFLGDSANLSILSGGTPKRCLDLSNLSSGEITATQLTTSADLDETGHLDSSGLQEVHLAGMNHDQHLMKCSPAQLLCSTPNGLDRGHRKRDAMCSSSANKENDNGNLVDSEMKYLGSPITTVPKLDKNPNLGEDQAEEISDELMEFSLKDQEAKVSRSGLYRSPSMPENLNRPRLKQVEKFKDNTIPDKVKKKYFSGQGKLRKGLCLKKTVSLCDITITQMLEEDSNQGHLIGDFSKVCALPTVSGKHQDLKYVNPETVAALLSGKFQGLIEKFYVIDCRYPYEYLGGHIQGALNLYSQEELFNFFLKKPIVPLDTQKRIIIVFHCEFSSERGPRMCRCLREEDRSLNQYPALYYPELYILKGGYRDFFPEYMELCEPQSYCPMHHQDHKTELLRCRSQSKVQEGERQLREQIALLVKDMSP
Put plainly: Cdc25C phosphatase inhibition screen at 50 μM. The following applies: for inhibition at 50 µM: read-out: Percent Inhibition at 50 uM compound, Cdc25 C. How it is done:
as §1

Another test concerns the target T3, Cdc25B (Homo sapiens, UniProt P30305).
T3 sequence (P30305 1-580): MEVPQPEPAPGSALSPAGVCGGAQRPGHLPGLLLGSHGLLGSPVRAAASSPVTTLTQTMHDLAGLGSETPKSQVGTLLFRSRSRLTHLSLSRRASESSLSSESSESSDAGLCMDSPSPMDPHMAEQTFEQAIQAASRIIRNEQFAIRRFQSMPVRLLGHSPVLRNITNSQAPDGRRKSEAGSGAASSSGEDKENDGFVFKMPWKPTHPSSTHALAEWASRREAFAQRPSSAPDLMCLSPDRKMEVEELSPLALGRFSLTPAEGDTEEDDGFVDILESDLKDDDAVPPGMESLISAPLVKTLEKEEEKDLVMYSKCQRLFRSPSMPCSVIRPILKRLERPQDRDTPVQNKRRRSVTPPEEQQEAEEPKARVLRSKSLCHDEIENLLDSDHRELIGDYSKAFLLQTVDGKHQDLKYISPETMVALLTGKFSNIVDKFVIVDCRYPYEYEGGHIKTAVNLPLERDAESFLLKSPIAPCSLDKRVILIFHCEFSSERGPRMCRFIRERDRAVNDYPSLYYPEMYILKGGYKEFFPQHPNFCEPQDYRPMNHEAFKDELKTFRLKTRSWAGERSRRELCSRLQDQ
Put plainly: Cdc25B phosphatase inhibition (50 μM screen, 3 pt. and 8 pt. IC-50). The following applies: for IC50: Cdc25B; for inhibition at 50 µM: read-out: Percent Inhibition at 50 uM compound, Cdc25 B. The method, then:
as §1

Where [1] appears, read: 3 pt. IC-50 using 1, 7 and 50 μM, read-out: IC50 (3 pt).
[2] abbreviates: 8 pt. IC-50 using 0.1–10 μM, read-out: IC50 (8 pt).

On to `CC1(c2[nH]c3ccccc3c2C2=C(O)C(=O)C=C(O)C2=O)CCCCC1` [3A, 2,5-dihydroxy-3-[2-(1-methylcyclohexyl)-1H-indol-3-yl]-[1,4]-benzoquinone], for which the inhibition at 50 µM on Cdc25A stood at 69%; at Cdc25C, 22%; at Cdc25B it was 11%. Also, the half-inhibitory concentration (IC50) at Cdc25B (setting [1]) is 82.9 µM.
For `O=C1C=C(O)C(=O)C(c2c(-c3ccccc3)[nH]c3ccccc23)=C1O` [3B, 2,5-dihydroxy-3-(2-phenyl-1H-indol-3-yl)-[1,4]-benzoquinone], the inhibition at 50 µM at Cdc25A came out at 93%; on Cdc25C, 18%; at Cdc25B, 38%. For the same compound, the 50% inhibitory concentration (IC50) at Cdc25B (setting [1]) came out at 22.2 µM.
`C=CC(C)(C)c1[nH]c2ccccc2c1C1=C(O)C(=O)C=C(O)C1=O` [3C, 2,5-dihydroxy-3-[2-(1,1-dimethyl-allyl)-1H-indol-3-yl]-[1,4]-benzoquinone]: the inhibition at 50 µM amounted to 40% on Cdc25A, 21% on Cdc25C and 0% at Cdc25B. The IC50 on Cdc25B (setting [1]) was 40.3 µM.
Take `O=C1C=C(O)C(=O)C(c2c[nH]c3cccc(F)c23)=C1O` [3D, 2,5-dihydroxy-3-(4-fluoro-1H-indol-3-yl)-[1,4]-benzoquinone]: the inhibition at 50 µM stood at 59% on Cdc25A, 0% at Cdc25C and 5% at Cdc25B. Also, the IC50 on Cdc25B (setting [1]) stood at 1.2 µM; on Cdc25B (setting [2]), 15.9 µM.
As for `O=C1C=C(O)C(=O)C(c2c[nH]c3cccc(Cl)c23)=C1O` [3E, 2,5-dihydroxy-3-(4-chloro-1H-indol-3-yl)-[1,4]-benzoquinone], the inhibition at 50 µM on Cdc25A is 67%; on Cdc25C, 0%; on Cdc25B it was 21%. Also, the IC50 came out at 3 µM on Cdc25B (setting [1]) and 8.4 µM on Cdc25B (setting [2]).
In the case of `O=C1C=C(O)C(=O)C(c2c[nH]c3cccc(Br)c23)=C1O` [3F, 2,5-dihydroxy-3-(4-bromo-1H-indol-3-yl)-[1,4]-benzoquinone], the inhibition at 50 µM was 0% on Cdc25A, 54% at Cdc25C and 6% on Cdc25B. In addition, the IC50 was 3.1 µM at Cdc25B (setting [1]) and more than 2 µM on Cdc25B (setting [2]).
As for `COc1cccc2[nH]cc(C3=C(O)C(=O)C=C(O)C3=O)c12` [3G, 2,5-dihydroxy-3-(4-methoxy-1H-indol-3-yl)-[1,4]-benzoquinone], the results for the inhibition at 50 µM on Cdc25A, on Cdc25C and at Cdc25B were 77%, 19% and 21%, respectively. Further, the IC50 at Cdc25B (setting [1]) was found to be 7.2 µM.
In the same order, the values of `O=C1C=C(O)C(=O)C(c2c[nH]c3cccc(OCc4ccccc4)c23)=C1O` [3H, 2,5-dihydroxy-3-(4-benzyloxy-1H-indol-3-yl)-[1,4]-benzoquinone] are 87%, 2%, 0% and 4.6 µM.
Regarding `Cc1cccc2[nH]cc(C3=C(O)C(=O)C=C(O)C3=O)c12` [4A, 2,5-dihydroxy-3-(4-methyl-1H-indol-3-yl)-[1,4]-benzoquinone], the inhibition at 50 µM is 51% on Cdc25A, 28% at Cdc25C and 9% at Cdc25B. Moreover, the IC50 on Cdc25B (setting [1]) stood at 6 µM.
Take `O=C1C=C(O)C(=O)C(c2c[nH]c3ccc(F)cc23)=C1O` [4B, 2,5-dihydroxy-3-(5-fluoro-1H-indol-3-yl)-[1,4]-benzoquinone]: the figures for the inhibition at 50 µM on Cdc25A, at Cdc25C and at Cdc25B were 64%, 23% and 32%, respectively. Also, the IC50 on Cdc25B (setting [1]) turned out to be 11.7 µM.
Take `O=C1C=C(O)C(=O)C(c2c[nH]c3ccc(Cl)cc23)=C1O` [4C, 2,5-dihydroxy-3-(5-chloro-1H-indol-3-yl)-[1,4]-benzoquinone]: the inhibition at 50 µM on Cdc25A is 95%; on Cdc25C, 45%; on Cdc25B, 32%. Besides, the IC50 at Cdc25B (setting [1]) came to 2.3 µM.
In the same order, the values of `O=C1C=C(O)C(=O)C(c2c[nH]c3ccc(Br)cc23)=C1O` [4D, 2,5-dihydroxy-3-(5-bromo-1H-indol-3-yl)-[1,4]-benzoquinone] are 96%, 26%, 55% and 2.4 µM.
With `Cc1cccc2c(C3=C(O)C(=O)c4cccc(O)c4C3=O)c[nH]c12` [4E, 2,5-dihydoxy-3-(7-methyl-1H-indol-3-yl)-[1,4]naphthoquinone], on Cdc25A (50 uM compound), the “Percent Inhibition at 50 uM compound, Cdc25 A” value amounted to 10%. For the same compound, at Cdc25C (50 uM compound), the “Percent Inhibition at 50 uM compound, Cdc25 C” value worked out at 0%. On Cdc25B (50 uM compound), the “Percent Inhibition at 50 uM compound, Cdc25 B” value is given as 0%. The concentration for half-maximal inhibition (IC50) on Cdc25B (setting [1]) worked out at 69.3 µM.
Turning to `COc1ccc2[nH]cc(C3=C(O)C(=O)C=C(O)C3=O)c2c1` [4F, 2,5-dihydroxy-3-(5-methoxy-1H-indol-3-yl)-[1,4]-benzoquinone], the values for the inhibition at 50 µM at Cdc25A, on Cdc25C and on Cdc25B were 15%, 0% and 0%, respectively. For the same compound, on Cdc25B (setting [1]), the 50% inhibitory concentration (IC50) is 6 µM.
For the compound `O=C1C=C(O)C(=O)C(c2c[nH]c3ccc(OCc4ccccc4)cc23)=C1O` [4G, 2,5-dihydroxy-3-(5-benzyloxy-1H-indol-3-yl)-[1,4]-benzoquinone], the values for the inhibition at 50 µM on Cdc25A, on Cdc25C and at Cdc25B were 96%, 26% and 50%, respectively. Moreover, the IC50 at Cdc25B (setting [1]) is 1.8 µM.
Take `Cc1ccc2[nH]cc(C3=C(O)C(=O)C=C(O)C3=O)c2c1` [4H, 2,5-dihydroxy-3-(5-methyl-1H-indol-3-yl)-[1,4]-benzoquinone]: the inhibition at 50 µM on Cdc25A was 94%; on Cdc25C, 55%; on Cdc25B it was 61%. In addition, on Cdc25B (setting [1]), the IC50 is 2.5 µM.
For the compound `O=C1C=C(O)C(=O)C(c2c[nH]c3cc(F)ccc23)=C1O` [5A, 2,5-dihydroxy-3-(6-fluoro-1H-indol-3-yl)-[1,4]-benzoquinone], the results for the inhibition at 50 µM at Cdc25A, at Cdc25C and on Cdc25B were 91%, 90% and 48%, respectively. Further, the IC50 worked out at 2 µM on Cdc25B (setting [1]) and 6.8 µM at Cdc25B (setting [2]).
`O=C1C=C(O)C(=O)C(c2c[nH]c3cc(Cl)ccc23)=C1O` [5B, 2,5-dihydroxy-3-(6-chloro-1H-indol-3-yl)-[1,4]-benzoquinone]: the inhibition at 50 µM at Cdc25A amounted to 99%; on Cdc25C it was 81%; at Cdc25B, 92%. For the same compound, the IC50 at Cdc25B (setting [1]) turned out to be 2.4 µM.
In the case of `O=C1C=C(O)C(=O)C(c2c[nH]c3cc(OCc4ccccc4)ccc23)=C1O` [5C, 2,5-dihydroxy-3-(6-benzyloxy-1H-indol-3-yl)-[1,4]-benzoquinone], the values for the inhibition at 50 µM on Cdc25A, at Cdc25C and at Cdc25B were 89%, 92% and 97%, respectively. At Cdc25B (setting [1]), the IC50 stood at 1.7 µM.
Take `Cc1ccc2c(C3=C(O)C(=O)C=C(O)C3=O)c[nH]c2c1` [5D, 2,5-dihydroxy-3-(6-methyl-1H-indol-3-yl)-[1,4]-benzoquinone]: the inhibition at 50 µM on Cdc25A came out at 80%; on Cdc25C it was 28%; at Cdc25B, 16%. In addition, the half-inhibitory concentration (IC50) at Cdc25B (setting [1]) amounted to 32.3 µM.

The term inhibition denotes the relative decrease from the control value, in per cent. For orientation: IC50 means the concentration that inhibits the measured activity by half.
